Experimental data: patent publication US9567336B2, “Conjugated TLR7 and/or TLR8 and TLR2 agonists” (CAYLA, priority 2012, dated 2017)

Legend:
Format in all cases: cell-based
human TLR7 = target: T1, human TLR7 (Homo sapiens, UniProt Q9NYK1); test: HEK-Blue hTLR7 NF-κB/AP-1 SEAP reporter cell assay; conditions: HEK-Blue hTLR7 reporter cells, 10 μg/mL to 10 pg/ml, 24 hours, OD at 655 nm; FIGS. 1A, 1B
T1 construct: host or cells: HEK293 (HEK-Blue hTLR7)
T1 sequence (Q9NYK1 27-1049): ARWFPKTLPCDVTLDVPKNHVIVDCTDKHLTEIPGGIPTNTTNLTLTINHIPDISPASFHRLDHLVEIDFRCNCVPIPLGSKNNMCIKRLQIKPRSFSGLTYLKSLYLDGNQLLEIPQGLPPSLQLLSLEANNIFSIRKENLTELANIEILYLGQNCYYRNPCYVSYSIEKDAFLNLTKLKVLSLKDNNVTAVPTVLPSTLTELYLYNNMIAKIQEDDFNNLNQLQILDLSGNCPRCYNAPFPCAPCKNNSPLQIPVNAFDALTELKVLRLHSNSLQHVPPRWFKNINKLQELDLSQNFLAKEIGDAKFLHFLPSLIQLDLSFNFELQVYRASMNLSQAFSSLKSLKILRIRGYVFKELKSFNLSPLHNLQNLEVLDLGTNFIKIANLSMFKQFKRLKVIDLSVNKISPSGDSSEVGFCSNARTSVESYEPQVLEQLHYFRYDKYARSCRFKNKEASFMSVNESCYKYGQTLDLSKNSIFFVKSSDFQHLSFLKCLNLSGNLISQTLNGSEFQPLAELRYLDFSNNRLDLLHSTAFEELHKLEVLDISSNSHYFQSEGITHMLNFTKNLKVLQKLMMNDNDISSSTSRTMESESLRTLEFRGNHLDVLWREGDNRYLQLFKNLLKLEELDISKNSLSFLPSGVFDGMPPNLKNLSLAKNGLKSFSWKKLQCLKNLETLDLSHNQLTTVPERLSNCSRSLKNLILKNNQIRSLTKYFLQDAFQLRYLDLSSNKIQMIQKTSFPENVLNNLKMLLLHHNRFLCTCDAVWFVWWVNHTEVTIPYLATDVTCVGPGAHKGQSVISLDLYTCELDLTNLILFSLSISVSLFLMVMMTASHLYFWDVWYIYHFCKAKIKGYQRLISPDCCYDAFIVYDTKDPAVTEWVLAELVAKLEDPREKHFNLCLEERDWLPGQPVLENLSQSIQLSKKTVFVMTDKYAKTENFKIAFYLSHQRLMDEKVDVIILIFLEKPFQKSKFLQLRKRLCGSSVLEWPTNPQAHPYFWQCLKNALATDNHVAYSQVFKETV
Procedure: (§1) Some conjugated compounds of the invention were tested for their ability to activate TLR7 and TLR2 receptor signaling. Cell-based assays were carried out using TLR7 and TLR2 reporter cell lines (InvivoGen). The reporter cell lines are engineered HEK293 cells, a human embryonic kidney cell line (ATCC, CRL-1573) that stably express either murine TLR7 (HEK-Blue™ mTLR7) or human TLR7 (HEK-Blue™ hTLR7) or murine TLR2 (HEK-Blue™ mTLR2) or human TLR2 (HEK-Blue™ hTLR2) with an NF-κB-inducible secreted embryonic alkaline phosphatase (SEAP) as the reporter gene. The SEAP reporter gene is placed under the control of the NF-κB and AP-inducible promoter. Stimulation with the corresponding TLR ligand activates NF-κB and AP-1, which induces the production of SEAP. Detection of SEAP is measured following culturing cells in HEK-Blue™ Detection media (InvivoGen). HEK-Blue™ Detection contains a SEAP substrate, which upon hydrolysis by SEAP produces a colorimetric change allowing for detection of SEAP as the protein is secreted. […] These assays were carried out using RAW-Blue™ Cells (InvivoGen), derived from RAW 264.7 mouse leukemic monocytic macrophage cell line (ATCC, CRL 2278) stably overexpressing a NF-κB/AP-1 inducible SEAP reporter constructs.
(§2) To perform the assay, cells were seeded on 96 well microliter plates at 50,000 or 100,000 cells per well for HEK-Blue™ Cells and RAW-Blue™ Cells respectively, and cultured at 37° C. in the presence of the conjugated compounds. The conjugated compounds were prepared as follows: First, stock solutions of the small molecule conjugated compounds of the invention were prepared in ethanol or water to a concentration of 10 mg/ml. A working dilution of the conjugated TLR7-TLR2 small molecules was made up in water and added to cells at a final range of concentrations from 10 μg/mL to 10 pg/ml. The working dilutions of the conjugated TLR7-TLR2 small molecules as the stated concentrations were directly added to the reporter cell lines and incubated at 37° C. for 24 hours. After 24 hours of incubation, the effect on reporter gene activity was determined by reading the OD at 655 nm using iMark™ Microplate Reader (BIO-RAD).
(§3) The conjugated compounds were tested alone for their ability to specifically activate TLR7 and TLR2, alongside the known TLR7 activators R848 or CL264 (InvivoGen) and the TLR2 agonists Pam2CSK4 or Pam3CSK4 (InvivoGen). The specificity of the TLR activity was determined by use of reporter cell lines to the other TLRs (data not shown). […] The molecules show a tendency to activate mouse TLR7 with greater sensitivity than human TLR7. […] Furthermore, dose-dependent responses of the conjugated compounds indicate significant TLR activities of TLR7 and TLR2 compared to the corresponding controls.

human TLR2 = target: T2, human TLR2 (Homo sapiens, UniProt O60603); test: HEK-Blue hTLR2 NF-κB/AP-1 SEAP reporter cell assay; conditions: HEK-Blue hTLR2 reporter cells, 10 μg/mL to 10 pg/ml, 24 hours, OD at 655 nm; FIGS. 3A, 3B
T2 construct: host or cells: HEK293 (HEK-Blue hTLR2)
T2 sequence (O60603 21-784): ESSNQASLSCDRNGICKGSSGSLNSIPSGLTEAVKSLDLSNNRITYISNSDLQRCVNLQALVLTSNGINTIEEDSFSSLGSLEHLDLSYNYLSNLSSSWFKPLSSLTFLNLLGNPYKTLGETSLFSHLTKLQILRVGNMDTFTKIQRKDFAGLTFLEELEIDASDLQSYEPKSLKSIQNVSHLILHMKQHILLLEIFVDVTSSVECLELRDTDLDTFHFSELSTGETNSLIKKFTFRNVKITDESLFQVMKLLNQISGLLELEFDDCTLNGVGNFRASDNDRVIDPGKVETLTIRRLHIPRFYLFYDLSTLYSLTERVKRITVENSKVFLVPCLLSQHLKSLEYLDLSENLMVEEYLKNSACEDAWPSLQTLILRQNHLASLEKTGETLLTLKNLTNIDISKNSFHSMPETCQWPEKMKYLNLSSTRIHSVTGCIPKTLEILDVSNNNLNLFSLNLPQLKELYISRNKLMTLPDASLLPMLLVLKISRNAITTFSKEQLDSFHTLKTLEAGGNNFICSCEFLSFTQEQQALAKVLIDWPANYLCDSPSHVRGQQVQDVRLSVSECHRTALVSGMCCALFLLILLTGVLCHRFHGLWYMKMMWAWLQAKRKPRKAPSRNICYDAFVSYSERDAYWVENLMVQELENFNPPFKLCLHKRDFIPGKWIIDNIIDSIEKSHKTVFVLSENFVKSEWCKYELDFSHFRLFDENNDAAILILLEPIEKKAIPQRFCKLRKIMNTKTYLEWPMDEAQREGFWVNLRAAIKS
Procedure: as §1, §2, §3

murine TLR2 = target: T3, murine TLR2 (Mus musculus, UniProt Q9QUN7); test: HEK-Blue mTLR2 NF-κB/AP-1 SEAP reporter cell assay; conditions: HEK-Blue mTLR2 reporter cells, 10 μg/mL to 10 pg/ml, 24 hours, OD at 655 nm; FIG. 4
T3 construct: host or cells: HEK293 (HEK-Blue mTLR2)
T3 sequence (Q9QUN7 25-784): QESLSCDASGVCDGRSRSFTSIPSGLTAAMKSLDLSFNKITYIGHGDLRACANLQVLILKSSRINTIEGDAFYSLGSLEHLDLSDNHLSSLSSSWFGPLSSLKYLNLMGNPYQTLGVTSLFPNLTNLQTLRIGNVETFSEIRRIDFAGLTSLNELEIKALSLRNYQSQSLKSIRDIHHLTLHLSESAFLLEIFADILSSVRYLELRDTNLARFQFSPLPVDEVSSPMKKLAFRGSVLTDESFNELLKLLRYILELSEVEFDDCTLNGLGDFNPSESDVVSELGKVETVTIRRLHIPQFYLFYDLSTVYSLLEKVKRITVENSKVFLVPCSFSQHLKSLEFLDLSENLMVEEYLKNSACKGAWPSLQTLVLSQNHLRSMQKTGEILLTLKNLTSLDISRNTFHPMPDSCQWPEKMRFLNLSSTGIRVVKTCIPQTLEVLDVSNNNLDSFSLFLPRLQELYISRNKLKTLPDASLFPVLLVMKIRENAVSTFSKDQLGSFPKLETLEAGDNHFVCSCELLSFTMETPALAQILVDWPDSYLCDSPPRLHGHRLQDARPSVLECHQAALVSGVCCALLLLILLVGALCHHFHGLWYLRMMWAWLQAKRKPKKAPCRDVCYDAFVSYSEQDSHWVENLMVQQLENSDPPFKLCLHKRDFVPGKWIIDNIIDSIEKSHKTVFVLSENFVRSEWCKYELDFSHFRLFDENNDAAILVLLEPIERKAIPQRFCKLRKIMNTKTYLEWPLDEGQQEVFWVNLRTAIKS
Procedure: as §1, §2, §3

## CCCCCCCCCCCCCCCC(=O)OCC(CSC[C@H](N)C(=O)Nc1ccc(Cn2c(O)nc3c(N)nc(NCCCC)nc32)cc1)OC(=O)CCCCCCCCCCCCCCC (mixture of isomers) [CL401, (R)-3-(2-amino-3-(4-((6-amino-2-(butylamino)-8-hydroxy-9H-purin-9-yl)methyl)phenylamino)-3-oxopropylthio)propane-1,2-diyl dipalmitate]
Human TLR7
  ability to activate TLR7 receptors (human TLR7): activate TLR7 receptors
Human TLR2
  ability to activate TLR2 receptor (human TLR2): activate TLR2 receptor
Murine TLR2
  ability to activate TLR2 receptor (murine TLR2): activate TLR2 receptor
